Values quoted from earlier work in patent publication US6511813B1, “Elongation factor P (EFP) and assays and antimicrobial treatments related to the same” (Pharmacia & Upjohn Company, priority 1999, dated 2003).

Experiments:
peptidyltransferase [1] = test system: peptidyltransferase
[2] = test system: fMet-tRNAfMet/ribosome translation complex
peptidyltransferase [3] = test system: peptidyltransferase; remark: listed apart in the source

Compound: CC[C@H]1OC(=O)[C@H](C)[C@@H](O[C@H]2C[C@@](C)(OC)[C@@H](O)[C@H](C)O2)[C@H](C)[C@@H](O[C@@H]2O[C@H](C)C[C@H](N(C)C)[C@H]2O)[C@](C)(O)C[C@@H](C)C(=O)[C@H](C)[C@@H](O)[C@]1(C)O [Erythromycin]
- effect on the efp reaction (efp; at 5×10^−5): no apparent effect

Compound: CCC[C@@H]1C[C@@H](C(=O)N[C@@H]([C@H]2O[C@H](SC)[C@H](O)[C@@H](O)[C@H]2O)[C@@H](C)O)N(C)C1 [Lincomycin]
- effect on efp reaction (efp): nullifies the ability of efp to stimulate synthesis of peptide bonds
- effect on the synthesis of polyphenylalanine (ribosome): marginal effects
- effect on the puromycin reaction (peptidyltransferase [1]): inhibits

Compound: [H]/N=C(/N)N[C@H]1[C@H](O)[C@@H](O)[C@H](O[C@@H]2O[C@@H](C)[C@](O)(C=O)[C@H]2O[C@@H]2O[C@@H](CO)[C@H](O)[C@@H](O)[C@@H]2NC)[C@@H](N/C(N)=N\[H])[C@@H]1O [Streptomycin]
- inhibition of the efp-mediated reaction (efp; at 2×10^−5 M): potent inhibitor

Compound: C=C(NC(=O)C(=C)NC(=O)c1csc(C2=N[C@@H]3c4csc(n4)[C@H]4NC(=O)c5csc(n5)[C@H]([C@](C)(O)[C@@H](C)O)NC(=O)[C@H]5CSC(=N5)/C(=C/C)NC(=O)[C@H]([C@@H](C)O)NC(=O)c5csc(n5)[C@]3(CC2)NC(=O)[C@H](C)NC(=O)C(=C)NC(=O)[C@H](C)NC(=O)[C@H]([C@@H](C)CC)N[C@@H]2C=Cc3c([C@H](C)O)cc(nc3[C@H]2O)C(=O)O[C@@H]4C)n1)C(N)=O [thiostrepton]
- effect on efp reaction (efp): inhibit only about 20% or have no effect
- effect on formation of the fMet-tRNAfMet/ribosome translation complex [2]: no effect
- effect on the peptide-bond synthesis which occurs in the absence of efp (peptidyltransferase [3]): no effect

Compound: neomycin
- effect on efp reaction (efp): inhibit only about 20% or have no effect
- effect on formation of the fMet-tRNAfMet/ribosome translation complex [2]: no effect
- effect on the peptide-bond synthesis which occurs in the absence of efp (peptidyltransferase [3]): no effect
